Each block holds one compound with its values, some of them ahead of it.
Columns and labels:
[1] = tested on: rat plasma; assay: Protein binding by TCA (10% rat plasma, 30 min, 37° C.); format: in vitro ADME; conditions: TCA precipitation
Protocol: One ml of 10% rat plasma was mixed with [^123 I]I-TBZ in a test tube and the mixture was incubated for 30 minutes at 37° C. To the mixture 0.4 mL of 10% trichloroacetic acid (TCA) was added. The test tube was centrifuged for 10 min. (4,000 rpm), and the top aqueous layer was removed to another test tube for counting The precipitate was washed with water (0.5 mL×2). The combined water and top aqueous layer was counted. The residual precipitate was also counted. The protein binding was obtained by dividing counts in precipitate with counts in aqueous layers.

[2] = Regional brain distribution in rats (dissection, iv injection); format: in vivo; conditions: rat, listed as I-TBZ peak B
Protocol: Regional brain distribution of [^123 I]I-TBZ (with either a racemic mixture, peak A or B) in rats was obtained after an iv injection. By dissecting, weighing and counting samples from different brain regions (cortex, striatum, hippocampus and cerebellum), % dose/gram of the samples was calculated by comparing the sample counts with the counts of the diluted initial dose. The ratio of uptake in each region was obtained by dividing % dose/gram of each region with that of the cerebellum. The effect of tetrahydrobenazine on the uptake of peak A or peak B was investigated by pretreating the rats with the TBZ 3 mg/rat at 3 min before iv injection of [^123 I]I-TBZ. At 20 min. post injection the rats were dissected and the regional brain dissection was carried out as above.

[3] = Biodistribution in rats (iv injection); format: in vivo; conditions: rat, iv
Protocol: While under ether anesthesia, each rat was injected in the femoral vein with 0.2 mL saline solution containing [^123 I]I-TBZ (1-5uCi) either racemic mixture, peak-A or peak-B. The rats were sacrificed at various time points postinjection by cardiac excision. The tissues were weighed and the radioactivity was measured with a Canberra gamma counter (Model 5000). The percent dose per organ was calculated by a comparison of the tissue counts to suitably diluted aliquots of the injected material. Total activities of blood and muscle were calculated assuming that they were 7% and 40% of total body weight, respectively Results are presented in Tables 3, 4A and 4B.

[4] = tested on: rat plasma; assay: Protein binding by Filter (50% rat plasma, Amicon micropartition system); format: in vitro ADME; conditions: 30 min, 37° C.
Protocol: One mL of rat plasma (50%) was mixed with [^123 I]I-TBZ in a test tube. After 30 min incubation at 37° C., 50 uL ×3 of liquid was removed as initial dose standard (I.D.); the rest was passed through an Amicon micropartition system (Amicon division, W. R. Grace, Danvers, Mass.) by centrifuging for 20 minutes (2,000 rpm) at 0° C. Four samples (50 uL each) were removed from the filtered solution and counted. The protein binding (% bound) was calculated by using the unit counts in filtrate divided by unit counts in ID.

[5] = tested on: monoamine transporter of chromaffin granules and CNS synaptic vesicles; conditions: cited from earlier work
[6] = normal and lesioned brain sections; cited from earlier work

Protein binding, by TCA [1]: 40.8 ± 0.6 % bound | Regional brain uptake, Rem ([2]; 5 min): 0.465 ± 0.070 % Dose/g | Regional brain uptake, cerebellum ([2]; 5 min): 0.449 ± 0.067 % Dose/g | Regional brain uptake, cortex ([2]; 5 min): 0.514 ± 0.066 % Dose/g | Regional brain uptake, hippocampus ([2]; 5 min): 0.458 ± 0.074 % Dose/g | Regional brain uptake, striatum ([2]; 5 min): 0.482 ± 0.066 % Dose/g | Str./Cb (% dose/gram ratio) ([2]; 5 min): 1.07 | Regional brain uptake, Rem ([2]; 20 min): 0.172 ± 0.011 % Dose/g | Regional brain uptake, cerebellum ([2]; 20 min): 0.162 ± 0.017 % Dose/g | Regional brain uptake, cortex ([2]; 20 min): 0.183 ± 0.012 % Dose/g | Regional brain uptake, hippocampus ([2]; 20 min): 0.189 ± 0.012 % Dose/g | Regional brain uptake, striatum ([2]; 20 min): 0.189 ± 0.001 % Dose/g | Str./Cb (% dose/gram ratio) ([2]; 20 min): 1.17 | Regional brain uptake, Rem ([2]; 60 min): 0.057 ± 0.006 % Dose/g | Regional brain uptake, cerebellum ([2]; 60 min): 0.055 ± 0.005 % Dose/g | Regional brain uptake, cortex ([2]; 60 min): 0.060 ± 0.007 % Dose/g | Regional brain uptake, hippocampus ([2]; 60 min): 0.058 ± 0.009 % Dose/g | Regional brain uptake, striatum ([2]; 60 min): 0.062 ± 0.002 % Dose/g | Str./Cb (% dose/gram ratio) ([2]; 60 min): 1.13 | Regional brain uptake, Rem ([2]; 120 min): 0.027 ± 0.004 % Dose/g | Regional brain uptake, cerebellum ([2]; 120 min): 0.027 ± 0.005 % Dose/g | Regional brain uptake, cortex ([2]; 120 min): 0.028 ± 0.005 % Dose/g | Regional brain uptake, hippocampus ([2]; 120 min): 0.027 ± 0.004 % Dose/g | Regional brain uptake, striatum ([2]; 120 min): 0.027 ± 0.003 % Dose/g | Str./Cb (% dose/gram ratio) ([2]; 120 min): 1.00 | Blood uptake (blood assumed 7% of body weight) ([3]; 5 min): 4.74 ± 0.36 % Dose/organ | Br/Bl (% dose/gram ratio) ([3]; 5 min): 1.54 ± 0.16 | Brain uptake ([3]; 5 min): 0.74 ± 0.07 % Dose/organ | Heart uptake ([3]; 5 min): 0.63 ± 0.03 % Dose/organ | Kidney uptake ([3]; 5 min): 2.18 ± 0.34 % Dose/organ | Liver uptake ([3]; 5 min): 22.61 ± 1.85 % Dose/organ | Lung uptake ([3]; 5 min): 2.02 ± 0.22 % Dose/organ | Muscle uptake (muscle assumed 40% of body weight) ([3]; 5 min): 21.12 ± 1.36 % Dose/organ | Skin uptake ([3]; 5 min): 7.64 ± 3.09 % Dose/organ | Spleen uptake ([3]; 5 min): 0.46 ± 0.03 % Dose/organ | Thyroid uptake ([3]; 5 min): 0.07 ± 0.01 % Dose/organ | Blood uptake (blood assumed 7% of body weight) ([3]; 20 min): 2.76 ± 0.42 % Dose/organ | Br/Bl (% dose/gram ratio) ([3]; 20 min): 1.06 ± 0.22 | Brain uptake ([3]; 20 min): 0.27 ± 0.02 % Dose/organ | Heart uptake ([3]; 20 min): 0.35 ± 0.02 % Dose/organ | Kidney uptake ([3]; 20 min): 1.37 ± 0.11 % Dose/organ | Liver uptake ([3]; 20 min): 17.25 ± 1.25 % Dose/organ | Lung uptake ([3]; 20 min): 1.05 ± 0.04 % Dose/organ | Muscle uptake (muscle assumed 40% of body weight) ([3]; 20 min): 19.78 ± 1.90 % Dose/organ | Skin uptake ([3]; 20 min): 8.37 ± 1.15 % Dose/organ | Spleen uptake ([3]; 20 min): 0.28 ± 0.03 % Dose/organ | Thyroid uptake ([3]; 20 min): 0.05 ± 0.01 % Dose/organ | Blood uptake (blood assumed 7% of body weight) ([3]; 60 min): 1.89 ± 0.13 % Dose/organ | Br/Bl (% dose/gram ratio) ([3]; 60 min): 0.47 ± 0.05 | Brain uptake ([3]; 60 min): 0.087 ± 0.01 % Dose/organ | Heart uptake ([3]; 60 min): 0.16 ± 0.01 % Dose/organ | Kidney uptake ([3]; 60 min): 0.70 ± 0.06 % Dose/organ | Liver uptake ([3]; 60 min): 8.36 ± 1.01 % Dose/organ | Lung uptake ([3]; 60 min): 0.46 ± 0.03 % Dose/organ | Muscle uptake (muscle assumed 40% of body weight) ([3]; 60 min): 11.80 ± 2.02 % Dose/organ | Skin uptake ([3]; 60 min): 5.45 ± 0.64 % Dose/organ | Spleen uptake ([3]; 60 min): 0.14 ± 0.03 % Dose/organ | Thyroid uptake ([3]; 60 min): 0.13 ± 0.03 % Dose/organ | Blood uptake (blood assumed 7% of body weight) ([3]; 120 min): 1.89 ± 0.34 % Dose/organ | Br/Bl (% dose/gram ratio) ([3]; 120 min): 0.25 ± 0.03 | Brain uptake ([3]; 120 min): 0.042 ± 0.008 % Dose/organ | Heart uptake ([3]; 120 min): 0.09 ± 0.02 % Dose/organ | Kidney uptake ([3]; 120 min): 0.36 ± 0.09 % Dose/organ | Liver uptake ([3]; 120 min): 4.35 ± 0.50 % Dose/organ | Lung uptake ([3]; 120 min): 0.27 ± 0.08 % Dose/organ | Muscle uptake (muscle assumed 40% of body weight) ([3]; 120 min): 5.72 ± 1.20 % Dose/organ | Skin uptake ([3]; 120 min): 4.80 ± 0.46 % Dose/organ | Spleen uptake ([3]; 120 min): 0.06 ± 0.01 % Dose/organ | Thyroid uptake ([3]; 120 min): 0.47 ± 0.14 % Dose/organ | Protein binding, by Filter [4]: 83.7 ± 0.8 % bound
Compound: COc1cc2c(cc1OC)C1CC(O)(C=C[123I])C(CC(C)C)CN1CC2 (single isomer, unassigned) [Peak B]

Compound: COc1cc2c(cc1OC)C1CC(O)C(CC(C)C)CN1CC2 (stereo not shown) [[^3 H]dihydro-TBZ, 2-hydroxy-3-(2-methylpropyl)-9,10-dimethoxy-1,3,4,6,7,11b-hexahydro-2H -benzo[a]quinolizine]
binding affinity for the transporter (in words) [5]: does not affect the binding affinity | Kd ([5]; membranes of chromaffin granules and brain tissue samples, in vitro, read-out: binding affinity Kd): 2 to 9 nM | Regional distribution of binding sites in brain sections (in words) [6]: corresponded to the monoamine cell bodies and nerve endings

— US5278308A, “Iodine derivatives of tetrabenazine” (The Trustees of The University of Pennsylvania, priority 1992, dated 1994)
